{"source": "paper PMC12152178", "about": "(Communications Medicine, 2025)", "key": {"[1]": {"system": "D. russelii venom proteases (SVMP)", "experiment": "Proteolytic activity of venom and its inhibition", "assay_type": "biochemical, Daboia russelii", "settings": "for IC50: read-out: IC50 (inhibition of venom proteolytic activity)"}, "[2]": {"system": "D. russelii venom-induced lethality", "experiment": "Preclinical efficacy: preincubation model of envenoming", "assay_type": "in vivo, mice", "settings": "for Percentage of survival: i.v., 24 h, n=5"}, "human fibrinogen": {"system": "human fibrinogen", "experiment": "Fibrinogenolytic activity of venom and its inhibition", "assay_type": "biochemical"}, "[3]": {"system": "human platelet-poor plasma, intrinsic pathway (aPTT)", "experiment": "Coagulation assay: activated partial thromboplastin time", "assay_type": "biochemical"}, "[4]": {"system": "human platelet-poor plasma, extrinsic pathway (PT)", "experiment": "Coagulation assay: prothrombin time", "assay_type": "biochemical"}, "[5]": {"system": "murine C2C12 skeletal muscle myoblast cells", "assay_type": "cell-based", "settings": "for cytotoxicity of the inhibitor alone: 100 μM, C2C12 cells, no venom; for reduction of venom-induced cytotoxicity: GA, KL and MP venoms, SMI 0–100 μM"}, "[6]": {"system": "D. russelii venom-induced lethality", "experiment": "Preclinical efficacy: rescue experiments", "assay_type": "in vivo, mice", "settings": "24 h, n=5"}, "[7]": {"settings": "KA venom 2.5x LD50 preincubated with SMI 60 µg/mouse"}, "[8]": {"settings": "PB venom 2.5x LD50 preincubated with SMI 60 µg/mouse"}, "[9]": {"settings": "PB venom 2.5x LD50 preincubated with SMI 120 µg/mouse"}, "[10]": {"settings": "RJ venom 2.5x LD50 preincubated with SMI 60 µg/mouse"}, "[11]": {"settings": "RJ venom, SMI 120 µg/mouse, venom alone mean 3 min"}, "[12]": {"settings": "TN venom 2.5x LD50 preincubated with SMI 60 µg/mouse"}, "[13]": {"settings": "WB venom 2.5x LD50 preincubated with SMI 60 µg/mouse"}, "[14]": {"settings": "KA and RJ venoms, SMI up to 100 µM (each)"}, "[15]": {"settings": "TN, KL, GA and MH venoms, SMI 0–100 µM, concentration-dependent"}, "[16]": {"settings": "TN, WB and RJ venoms, SMI 0–100 μM (each)"}, "[17]": {"settings": "MP venom 2.5x LD50 i.p., SMI 120 µg/mouse (each) i.v. at 0 min"}}, "note": "Like-named read-outs stand apart in the source and are kept apart here.", "data": [{"smiles": "CNC(=O)[C@@H](NC(=O)[C@H](CC(C)C)[C@H](O)C(=O)NO)C(C)(C)C", "note": "[marimastat, Marimastat]", "values": [{"measurement": "IC50", "setting": "[1]; GA (Goa) venom", "result": 2330, "unit": "nM"}, {"measurement": "IC50", "setting": "[1]; MP venom", "result": 1510, "unit": "nM"}, {"measurement": "IC50", "setting": "[1]; RJ (Rajasthan) venom", "result": 1670, "unit": "nM"}, {"measurement": "Percentage of survival", "setting": "[2]; [7]", "result": "sufficient to neutralise the lethal effects"}, {"measurement": "Percentage of survival", "setting": "[2]; [8]", "result": "failed to protect"}, {"measurement": "Percentage of survival", "setting": "[2]; [9]", "result": "complete protection"}, {"measurement": "Percentage of survival", "setting": "[2]; [10]", "result": "failed to protect"}, {"measurement": "extension of survival time over venom alone", "setting": "[2]; RJ venom, SMI 120 µg/mouse", "result": 12, "unit": "x"}, {"measurement": "mean survival time of mice (onset of lethality)", "setting": "[2]; [11]", "result": 36, "unit": "min"}, {"measurement": "Percentage of survival", "setting": "[2]; [12]", "result": "failed to protect"}, {"measurement": "Percentage of survival", "setting": "[2]; TN venom 2.5x LD50 preincubated with SMI 120 µg/mouse", "result": "complete protection"}, {"measurement": "Percentage of survival", "setting": "[2]; [13]", "result": "failed to protect"}, {"measurement": "protection against venom-induced fibrinogenolysis", "setting": "human fibrinogen; PB, KA, KL, AP, GA and RJ venoms, SMI 100 µM", "result": "very effective"}, {"measurement": "protection against venom-induced fibrinogenolysis", "setting": "human fibrinogen; TN, MH, MP and WB venoms, SMI 100 µM (each)", "result": "did not completely neutralise"}, {"measurement": "inhibition of venom-induced aPTT alterations", "setting": "[3]; AP and MP venoms, SMI 0–100 µM", "result": "capable of inhibiting"}, {"measurement": "inhibition of venom-induced aPTT alterations", "setting": "[3]; [14]", "result": "ineffective"}, {"measurement": "inhibition of venom-induced aPTT alterations", "setting": "[3]; PB and WB venoms, SMI up to 100 µM (each)", "result": "failed to inhibit"}, {"measurement": "reversal of venom-induced aPTT alterations", "setting": "[3]; [15]", "result": "reversed"}, {"measurement": "inhibition of venom-induced PT alterations", "setting": "[4]; [14]", "result": "ineffective"}, {"measurement": "inhibition of venom-induced PT alterations", "setting": "[4]; MP and AP venoms, SMI up to 100 µM (each)", "result": "failed to inhibit"}, {"measurement": "inhibition of venom-induced PT alterations", "setting": "[4]; PB and WB venoms, SMI 0–100 µM", "result": "capable of inhibiting"}, {"measurement": "reversal of venom-induced PT alterations", "setting": "[4]; [15]", "result": "reversed"}, {"measurement": "cytotoxicity of the inhibitor alone", "setting": "[5]", "result": "Neither inhibitor exhibited cytotoxicity"}, {"measurement": "inhibition of venom-induced cytotoxicity", "setting": "[5]; AP venom 50 µg/ml, SMI 0–100 µM", "result": 94.89, "unit": "%"}, {"measurement": "reduction of venom-induced cytotoxicity", "setting": "[5]", "result": "72.88–94.85%"}, {"measurement": "inhibition of venom-induced cytotoxicity", "setting": "[5]; [16]", "result": "41.20–70.51%"}, {"measurement": "% of survival", "setting": "[6]; KA venom 2.5x LD50 i.p., SMI 120 µg/mouse i.v. at 0 min", "result": 40, "unit": "%"}, {"measurement": "% of survival", "setting": "[6]; [17]", "result": 40, "unit": "%"}, {"measurement": "% of survival", "setting": "[6]; PB venom 2.5x LD50 i.p., SMI 120 µg/mouse i.v. at 0 min", "result": "ineffective"}]}, {"smiles": "N=C(N)c1ccc2cc(OC(=O)c3ccc(N=C(N)N)cc3)ccc2c1", "note": "[nafamostat, Nafamostat]", "values": [{"measurement": "inhibition of the protease activity of D. russelii venom", "setting": "[1]; AP venom (Fig. S1), 0–100 µM", "result": "failed to inhibit"}, {"measurement": "extension of survival time over venom alone", "setting": "[2]; RJ venom, SMI 120 µg/mouse", "result": 160, "unit": "x"}, {"measurement": "mean survival time of mice (onset of lethality)", "setting": "[2]; [11]", "result": 480, "unit": "min"}]}, {"smiles": "CCc1c(C(=O)C(N)=O)c2c(OCC(=O)O)cccc2n1Cc1ccccc1", "note": "[varespladib, Varespladib]", "values": [{"measurement": "Percentage of survival", "setting": "[2]; AP venom 2.5x LD50 preincubated 30 min with SMI 60 µg/mouse", "result": "failed to protect"}, {"measurement": "Percentage of survival", "setting": "[2]; AP venom 2.5x LD50 preincubated with SMI 120 µg/mouse", "result": "failing to prevent lethality"}, {"measurement": "extension of survival time over venom alone", "setting": "[2]; KA and AP venoms (both), SMI 120 µg/mouse", "result": 13, "unit": "x"}, {"measurement": "mean survival time of mice", "setting": "[2]; KA and AP venoms (both), SMI 120 µg/mouse, venom alone mean 3 min", "result": 39, "unit": "min"}, {"measurement": "Percentage of survival", "setting": "[2]; [7]", "result": "failed to protect"}, {"measurement": "Percentage of survival", "setting": "[2]; KA venom 2.5x LD50 preincubated with SMI 120 µg/mouse", "result": "failing to prevent lethality"}, {"measurement": "Percentage of survival", "setting": "[2]; [8]", "result": "failed to protect"}, {"measurement": "Percentage of survival", "setting": "[2]; PB venom 2.5x LD50 preincubated with SMI 90 µg/mouse", "result": 80, "unit": "%"}, {"measurement": "Percentage of survival", "setting": "[2]; [9]", "result": "complete protection"}, {"measurement": "Percentage of survival", "setting": "[2]; [10]", "result": 40, "unit": "%"}, {"measurement": "Percentage of survival", "setting": "[2]; RJ venom 2.5x LD50 preincubated with SMI 90 µg/mouse", "result": 60, "unit": "%"}, {"measurement": "Percentage of survival", "setting": "[2]; [12]", "result": "failed to protect"}, {"measurement": "Percentage of survival", "setting": "[2]; TN venom 2.5x LD50 preincubated with SMI 90 µg/mouse", "result": "completely protected"}, {"measurement": "Percentage of survival", "setting": "[2]; [13]", "result": 40, "unit": "%"}, {"measurement": "inhibition of venom-induced aPTT alterations", "setting": "[3]; TN venom, 100 µM", "result": "failed to prevent coagulopathy"}, {"measurement": "inhibition of venom-induced PT alterations", "setting": "[4]; TN venom, 100 µM", "result": "failed to prevent coagulopathy"}, {"measurement": "cytotoxicity of the inhibitor alone", "setting": "[5]", "result": "Neither inhibitor exhibited cytotoxicity"}, {"measurement": "reduction of venom-induced cytotoxicity", "setting": "[5]", "result": "72.88–94.85%"}, {"measurement": "inhibition of venom-induced cytotoxicity", "setting": "[5]; MH venom 50 µg/ml, SMI 0–100 µM", "result": 88.67, "unit": "%"}, {"measurement": "inhibition of venom-induced cytotoxicity", "setting": "[5]; PB venom 50 µg/ml, SMI 0–100 µM", "result": 85.32, "unit": "%"}, {"measurement": "inhibition of venom-induced cytotoxicity", "setting": "[5]; [16]", "result": "41.20–70.51%"}, {"measurement": "% of survival", "setting": "[6]; [17]", "result": 60, "unit": "%"}, {"measurement": "% of survival", "setting": "[6]; PB venom 2.5x LD50 i.p., SMI 120 µg/mouse i.v. at 30 min", "result": "complete protection"}]}]}
